Results reported in article PMC6547681 (Nature Communications, 2019).
“And” between values parts separate entries of the source, which are not always exact repeats. Equal values may be shown once. Read-outs that look alike come from different tables or passages of the source.

Tested on: BCL-2 WT
Test: Steady-state competition SPR against immobilised BIMBH3 peptide, BCL-2 WT
Type: binding, human
Details: for Ki: BCL-2 WT
Description: SPR experiments were performed as previously described. […] The lowest concentrations used in direct binding experiments were 1 nM for BIAcore 4000 and 0.1 nM for BIAcore S200 instruments, concentrations below these were below the sensitivity thresholds for the instruments. […] Direct binding experiments were fitted to a 1:1 binding site kinetic model, fitting on and off rates, in BIAevaluation software. For competition experiments steady-state responses were determined in BIAevaluation software according to the software defaults in affinity evaluation mode averaging responses for 5 sec. […] All affinity measurements were performed in at least two independent experiments using independent protein preparations.

Compound: O=C(c1cc(-c2cc3c(cc2C(=O)N2Cc4ccccc4C[C@H]2CN2CCOCC2)OCO3)n2c1CCCC2)N(c1ccccc1)c1ccc(O)cc1 [S55746]
- Raw data values in Figure 3f (SPR response) (S55746 concentration 20, BCL-2 concentration 40 nM, independent experiment 2): 278.992
- Raw data values in Figure 3f (SPR response) (S55746 concentration 20, BCL-2 concentration 40 nM, independent experiment 3): 55.2753
- Raw data values in Figure 3f (SPR response) (S55746 concentration 20, BCL-2 concentration 50 nM, independent experiment 1): 87.889
- Raw data values in Figure 3f (SPR response) (S55746 concentration 20, BCL-2 concentration 50 nM, independent experiment 3): 61.4638
- Raw data values in Figure 3f (SPR response) (S55746 concentration 20, BCL-2 concentration 60 nM, independent experiment 1): 89.8444
- Raw data values in Figure 3f (SPR response) (S55746 concentration 20, BCL-2 concentration 60 nM, independent experiment 3): 66.5259
- Raw data values in Figure 3f (SPR response) (S55746 concentration 20, BCL-2 concentration 70 nM, independent experiment 1): 91.3513
- Raw data values in Figure 3f (SPR response) (S55746 concentration 20, BCL-2 concentration 70 nM, independent experiment 3): 70.0896
- Raw data values in Figure 3f (SPR response) (S55746 concentration 20, BCL-2 concentration 80 nM, independent experiment 1): 91.9809
- Raw data values in Figure 3f (SPR response) (S55746 concentration 20, BCL-2 concentration 80 nM, independent experiment 3): 71.977
- Raw data values in Figure 3f (SPR response) (S55746 concentration 20, BCL-2 concentration 100 nM, independent experiment 1): 93.8895
- Raw data values in Figure 3f (SPR response) (S55746 concentration 20, BCL-2 concentration 100 nM, independent experiment 3): 77.7314
- Raw data values in Figure 3f (SPR response) (S55746 concentration 20, BCL-2 concentration 150 nM, independent experiment 1): 96.8618
- Raw data values in Figure 3f (SPR response) (S55746 concentration 20, BCL-2 concentration 150 nM, independent experiment 3): 85.769
- Raw data values in Figure 3f (SPR response) (S55746 concentration 20, BCL-2 concentration 200 nM, independent experiment 1): 97.7551
- Raw data values in Figure 3f (SPR response) (S55746 concentration 20, BCL-2 concentration 200 nM, independent experiment 3): 90.6286
- Raw data values in Figure 3f (SPR response) (S55746 concentration 40, BCL-2 concentration 1 nM, independent experiment 2): 1.748
- Raw data values in Figure 3f (SPR response) (S55746 concentration 40, BCL-2 concentration 3 nM, independent experiment 2): 3.274
- Raw data values in Figure 3f (SPR response) (S55746 concentration 40, BCL-2 concentration 4 nM, independent experiment 2): 4.7441
- Raw data values in Figure 3f (SPR response) (S55746 concentration 40, BCL-2 concentration 6 nM, independent experiment 2): 5.884
- Raw data values in Figure 3f (SPR response) (S55746 concentration 40, BCL-2 concentration 8 nM, independent experiment 2): 7.971
- Raw data values in Figure 3f (SPR response) (S55746 concentration 40, BCL-2 concentration 9 nM, independent experiment 2): 9.582
- Raw data values in Figure 3f (SPR response) (S55746 concentration 40, BCL-2 concentration 10 nM, independent experiment 1): 5.808
- Raw data values in Figure 3f (SPR response) (S55746 concentration 40, BCL-2 concentration 10 nM, independent experiment 3): 2.581
- Raw data values in Figure 3f (SPR response) (S55746 concentration 40, BCL-2 concentration 11 nM, independent experiment 2): 11.5501
- Raw data values in Figure 3f (SPR response) (S55746 concentration 40, BCL-2 concentration 12 nM, independent experiment 2): 13.3285
- Raw data values in Figure 3f (SPR response) (S55746 concentration 40, BCL-2 concentration 16 nM, independent experiment 2): 18.1319
- Raw data values in Figure 3f (SPR response) (S55746 concentration 40, BCL-2 concentration 20 nM, independent experiment 1): 14.077
- Raw data values in Figure 3f (SPR response) (S55746 concentration 40, BCL-2 concentration 20 nM, independent experiment 3): 5.653
- Raw data values in Figure 3f (SPR response) (S55746 concentration 40, BCL-2 concentration 24 nM, independent experiment 2): 35.953
- Raw data values in Figure 3f (SPR response) (S55746 concentration 40, BCL-2 concentration 30 nM, independent experiment 1): 36.4319
- Raw data values in Figure 3f (SPR response) (S55746 concentration 40, BCL-2 concentration 30 nM, independent experiment 3): 15.4804
- Raw data values in Figure 3f (SPR response) (S55746 concentration 40, BCL-2 concentration 40 nM, independent experiment 1): 75.4873
- Raw data values in Figure 3f (SPR response) (S55746 concentration 40, BCL-2 concentration 40 nM, independent experiment 2): 135.922
- Raw data values in Figure 3f (SPR response) (S55746 concentration 40, BCL-2 concentration 40 nM, independent experiment 3): 43.3243
- Raw data values in Figure 3f (SPR response) (S55746 concentration 40, BCL-2 concentration 50 nM, independent experiment 1): 78.7968
- Raw data values in Figure 3f (SPR response) (S55746 concentration 40, BCL-2 concentration 50 nM, independent experiment 3): 49.1674
- Raw data values in Figure 3f (SPR response) (S55746 concentration 40, BCL-2 concentration 60 nM, independent experiment 1): 84.5822
- Raw data values in Figure 3f (SPR response) (S55746 concentration 40, BCL-2 concentration 60 nM, independent experiment 3): 58.6901
- Raw data values in Figure 3f (SPR response) (S55746 concentration 40, BCL-2 concentration 70 nM, independent experiment 1): 88.5391
- Raw data values in Figure 3f (SPR response) (S55746 concentration 40, BCL-2 concentration 70 nM, independent experiment 3): 64.9952
- Raw data values in Figure 3f (SPR response) (S55746 concentration 40, BCL-2 concentration 80 nM, independent experiment 1): 89.9035
- Raw data values in Figure 3f (SPR response) (S55746 concentration 40, BCL-2 concentration 80 nM, independent experiment 3): 69.0967
- Raw data values in Figure 3f (SPR response) (S55746 concentration 40, BCL-2 concentration 100 nM, independent experiment 1): 92.2307
- Raw data values in Figure 3f (SPR response) (S55746 concentration 40, BCL-2 concentration 100 nM, independent experiment 3): 75.0006
- Raw data values in Figure 3f (SPR response) (S55746 concentration 40, BCL-2 concentration 150 nM, independent experiment 1): 94.9838
- Raw data values in Figure 3f (SPR response) (S55746 concentration 40, BCL-2 concentration 150 nM, independent experiment 3): 84.1638
- Raw data values in Figure 3f (SPR response) (S55746 concentration 40, BCL-2 concentration 200 nM, independent experiment 1): 96.8989
- Raw data values in Figure 3f (SPR response) (S55746 concentration 40, BCL-2 concentration 200 nM, independent experiment 3): 89.8321
- Raw data values in Figure 3f (SPR response) (S55746 concentration 60, BCL-2 concentration 10 nM, independent experiment 1): 3.3753
- Raw data values in Figure 3f (SPR response) (S55746 concentration 60, BCL-2 concentration 10 nM, independent experiment 3): 1.1233
- Raw data values in Figure 3f (SPR response) (S55746 concentration 60, BCL-2 concentration 20 nM, independent experiment 1): 7.929
- Raw data values in Figure 3f (SPR response) (S55746 concentration 60, BCL-2 concentration 20 nM, independent experiment 3): 2.648
- Raw data values in Figure 3f (SPR response) (S55746 concentration 60, BCL-2 concentration 30 nM, independent experiment 1): 13.853
- Raw data values in Figure 3f (SPR response) (S55746 concentration 60, BCL-2 concentration 30 nM, independent experiment 3): 4.966
- Raw data values in Figure 3f (SPR response) (S55746 concentration 60, BCL-2 concentration 40 nM, independent experiment 1): 26.5524
- Raw data values in Figure 3f (SPR response) (S55746 concentration 60, BCL-2 concentration 40 nM, independent experiment 3): 9.938
- Raw data values in Figure 3f (SPR response) (S55746 concentration 60, BCL-2 concentration 50 nM, independent experiment 1): 51.4643
- Raw data values in Figure 3f (SPR response) (S55746 concentration 60, BCL-2 concentration 50 nM, independent experiment 3): 23.6574
- Raw data values in Figure 3f (SPR response) (S55746 concentration 60, BCL-2 concentration 60 nM, independent experiment 1): 75.6075
- Raw data values in Figure 3f (SPR response) (S55746 concentration 60, BCL-2 concentration 60 nM, independent experiment 3): 44.7291
- Raw data values in Figure 3f (SPR response) (S55746 concentration 60, BCL-2 concentration 70 nM, independent experiment 1): 83.0032
- Raw data values in Figure 3f (SPR response) (S55746 concentration 60, BCL-2 concentration 70 nM, independent experiment 3): 55.5781
- Raw data values in Figure 3f (SPR response) (S55746 concentration 60, BCL-2 concentration 80 nM, independent experiment 1): 87.1926
- Raw data values in Figure 3f (SPR response) (S55746 concentration 60, BCL-2 concentration 80 nM, independent experiment 3): 62.5167
- Raw data values in Figure 3f (SPR response) (S55746 concentration 60, BCL-2 concentration 100 nM, independent experiment 1): 90.81
- Raw data values in Figure 3f (SPR response) (S55746 concentration 60, BCL-2 concentration 100 nM, independent experiment 3): 70.2062
- Raw data values in Figure 3f (SPR response) (S55746 concentration 60, BCL-2 concentration 150 nM, independent experiment 1): 94.4799
- Raw data values in Figure 3f (SPR response) (S55746 concentration 60, BCL-2 concentration 150 nM, independent experiment 3): 81.267
- Raw data values in Figure 3f (SPR response) (S55746 concentration 60, BCL-2 concentration 200 nM, independent experiment 1): 96.2757
- Raw data values in Figure 3f (SPR response) (S55746 concentration 60, BCL-2 concentration 200 nM, independent experiment 3): 87.9958
- Raw data values in Figure 3f (SPR response) (S55746 concentration 80, BCL-2 concentration 1 nM, independent experiment 2): 1.2215
- Raw data values in Figure 3f (SPR response) (S55746 concentration 80, BCL-2 concentration 3 nM, independent experiment 2): 2.493
- Raw data values in Figure 3f (SPR response) (S55746 concentration 80, BCL-2 concentration 4 nM, independent experiment 2): 3.639
- Raw data values in Figure 3f (SPR response) (S55746 concentration 80, BCL-2 concentration 6 nM, independent experiment 2): 4.673
- Raw data values in Figure 3f (SPR response) (S55746 concentration 80, BCL-2 concentration 8 nM, independent experiment 2): 5.6951
- Raw data values in Figure 3f (SPR response) (S55746 concentration 80, BCL-2 concentration 9 nM, independent experiment 2): 6.782
- Raw data values in Figure 3f (SPR response) (S55746 concentration 80, BCL-2 concentration 11 nM, independent experiment 2): 7.791
- Raw data values in Figure 3f (SPR response) (S55746 concentration 80, BCL-2 concentration 12 nM, independent experiment 2): 8.945
- Raw data values in Figure 3f (SPR response) (S55746 concentration 80, BCL-2 concentration 16 nM, independent experiment 2): 11.2715
- Raw data values in Figure 3f (SPR response) (S55746 concentration 80, BCL-2 concentration 24 nM, independent experiment 2): 17.5573
- Raw data values in Figure 3f (SPR response) (S55746 concentration 80, BCL-2 concentration 40 nM, independent experiment 2): 30.3087
- Ki (read-out: S55746 KI (mean), competition vs BIMBH3 SPR surface, mean ± SD, n ≥ 2): 0.36 nM and 0.356 nM
- Ki (read-out: S55746 KI, single independent experiments, independent experiments 1-3): 0.358 nM and 0.372 nM and 0.338 nM
